{"source": "patent US8338420B1", "about": "“Treatment of Parkinson's disease and enhancement of dopamine signal using PDE 10 inhibitor” (Mitsubishi Tanabe Pharma Corporation, priority 2002, dated 2012)", "system": "marmoset MPTP model", "test": "Marmoset MPTP model, effect on L-dopa efficacy", "type": "in vivo", "conditions": "0.3 mg/kg or 1 mg/kg, i.v., together with L-dopa, versus vehicle with L-dopa", "method": "Using marmoset MPTP models, effects of test compound on pharmaceutical efficacy of L-dopa administration were tested as follows.\nAbout 16 weeks before carrying out the tests, marmosets were administered with MPTP (1-methyl-4-phenyl-1,2,3,6-tetrahydropyridine) (2.5 mg/kg, i.v.), according to the method described in the literature (Fukuzaki et al., Pharmacol. Biochem. Behav., vol. 67 No. 1, pp. 121-129, September 2000), to degenerate dopaminergic neurons in the brain, and individuals showing parkinsonian symptoms were used.\nUsing these marmosets (age 3-4 years, bodyweight 300-400 g), the following three kinds of tests were performed. […]\nAfter administration of test compound (PDE10 inhibitor) (or vehicle) and L-dopa+benserazide, each individual was transferred to an activity cage equipped with four photo cell sensor units, and observation was continued for 6 hours at longest. For each individual, locomotor activity and motor disability score were evaluated in every 10-minute interval.\nMotor disability was assessed according to the following 7 evaluation items, and total score of the 7 items were regarded as the motor disability score. […]"}
{"smiles": "COc1ccc(-c2cc(N3CCCC3)nc(/C=C/c3nc(-n4ccnc4)c4ccccc4n3)n2)cc1OC", "note": "[Compound A, 2-{(E)-2-[4-(1-imidazolyl)-quinazolin-2-yl]}ethenyl-4-(3,4-dimethoxy)phenyl-6-(pyrrolidin-1-yl)pyrimidine]", "values": [{"measurement": "effects of L-dopa to alleviate symptoms (locomotor activity and motor disability score)", "result": "enhanced and/or prolonged duration of effects of L-dopa to alleviate symptoms"}]}
